# B1: rhs-TRAIL: recombinant human soluble TRAIL (protein, UniProt P50591 39-281, looked up)
# extracellular domain: TNELKQMQDKYSKSGIACFLKEDDSYWDPNDEESMNSPCWQVKWQLRQLVRKMILRTSEETISTVQEKQQNISPLVRERGPQRVAAHITGTRGRSNTLSSPNSKNEKALGRKINSWESSRSGHSFLSNLHLRNGELVIHEKGFYYIYSQTYFRFQEEIKENTKNDKQMVQYIYKYTSYPDPILLMKSARNSCWSKDAEYGLYSIYQGGIFELKENDRIFVSVTNEHLIDMDHEASFFGAFLVG
# modifications: extracellular domain
# Experiments:
# [1] = system: iDCs; assay: aNK-induced apoptosis of iDCs at NK:DC ratio 5:1 (7-AAD assay); assay type: cell-based, human
# Protocol: (a) CD56^+ NK cells were purified from the blood of healthy donors. NK cells were maintained in culture with suboptimal concentrations of interleukin-2 (IL-2) (100 ng/ml) (rNK cells) or activated (aNK cells) by the addition PHA (10 μg/ml) and IL-2 (10 μg/ml) to cultures. […] Data represent the mean±sd of three independent experiments. […] In some cases, iDCs were cocultured with aNK cells at the NK:DC ratio of 5:1. […] Cell death was then quantified with the 7-AAD assay. […] (g) iDCs were cultured for 24 h either alone or with aNK cells (NK:DC ratio of 5:1), in the absence or presence of blocking anti-DR4 antibodies (250 ng/ml). The viability status of DCs was determined by flow cytometry with the 7-AAD assay. […]
# FIGS. 11(a)-(b). […] Cell death was then quantified with the 7-AAD assay. […]
# rNK or aNK were cocultured during 24 h with iDCs or mDCs at a ratio of 1:5 (2×105 NK+10×105 DC/1 ml), unless otherwise indicated. DC survival was determined with the 7-AAD assay, as described previously55. […]
# Immature DCs (iDCs) were prepared from sorted monocytes from healthy donors, cultured for 6 days in the presence of IL-4 and GM-CSF. […] The influence of NK-DC interaction on DC's maturation and apoptosis was analyzed using multiparametric flow cytometry, combining 7-AAD staining with membrane and intracellular staining with mAbs specific for HLA-DR, DC-SIGN, CD83, CD86, DR4, mTRAIL, etc.
# [2] = system: iDCs; assay: aNK-dependent maturation of iDCs in 24 h aNK-iDC coculture (CD86/HLA-DR flow cytometry); assay type: cell-based, human; conditions: uninfected iDCs, inhibitor 10 μg/ml added at initiation
# Protocol: FIG. 3 (a)-(e). aNK-dependent maturation of HIV-1-infected iDCs is mediated by HMGB1 and involves RAGE. (a) Left panel: iDCs were cultured for 24 h either alone or with aNK cells, in the presence of blocking anti-HMGB1 antibodies (10 μg/ml) or glycyrrhizin (10 μg/ml). The maturation status of DCs was determined by flow cytometry with CD86 and HLA-DR—specific antibodies. Right panel: same experiment, but performed with HIV-1 infected iDCs. Data represent mean±sd of at least three independent experiments, and statistical comparisons were made with the non parametric Mann-Whitney test. * p<0.05. (b) iDC (10^6 cells/ml) were cultured for 48 h with increasing concentrations (1-10 μg/ml) of rh-HMGB1. Cells were then stained with anti-CD86, -HLA-DR, -CD80, -CD83, DC-LAMP and -CD40 antibodies and analyzed by flow cytometry. (c) Influence of rh-HMGB1 on cytokine and chemokine production (determined by MAP) by DCs. iDCs (10^6 cells/ml) were incubated for 48 h in medium or in presence of rh-HMGB1 (1 or 10 μg/ml). As a positive control, iDCs were stimulated with LPS (DC0). […] (e) iDC, DC0, uninfected or HIV-1-infected iDC cocultured for 24 h with aNK cells, were incubated with rh-HMGB1 (1 μg/ml) and subsequently stained with anti-RAGE antibodies and analyzed by flow cytometry. […]
# [3] = system: R5-HIV-1Ba-L; assay: HIV-1 replication in infected iDCs, p24 ELISA in culture supernatant; assay type: cell-based; conditions: inhibitor 10 μg/ml, 3 days
# Protocol: FIGS. 6 (a), (b) and (c). Exogenous rh-HMGB1 triggers HIV-1 and HIV-2 replication in iDC. (a) HIV-1-infected iDC were cultured alone or in the presence of aNK cells for 3 days. Rh-HMGB1 (1 μg/ml) was added in some cultures. HIV replication was measured by p24 quantification in culture supernatant (b) HIV1-infected iDC were cultured alone or in the presence of aNK cells for 3 days. Blocking anti-HMGB1 antibodies (10 μg/ml) or glycyrrhizin (10 μg/ml) were added at culture initiation. HIV replication was measured by p24 quantification in culture supernatant. The mean±sd of three independent experiments is shown. Statistical comparisons were made with the non parametric Mann-Whitney test. * p<0.05; (c) HIV-2-infected iDC were cultured alone or in the presence of aNK cells for 3 days. Rh-HMGB1 (1 μg/ml) was added in some cultures. HIV replication was measured by p24 quantification in culture supernatant.
# Virus stock preparation was prepared by amplification of R5-HIV-1Ba-L on MDM from healthy donors. Viral stock was then clarified by centrifugation prior to determination of HIV1 p24 concentration. iDCs were plated in 96-well culture plates at 200,000 cells/well and incubated for 3 hours at 37° C. in a 5% CO2 atmosphere with R5-HIV-1BAL at various concentrations (0.001 to 10 ng p24/ml). Cells were harvested, washed four times with media containing 10% FCS and, when indicated, rNK or aNK cells were added at a NK:DC ratio of 1:5, unless otherwise indicated. NK-DC cocultures lasted 24 h before analysis of the maturation stage of DCs and/or quantification of viral production. In some experiments (FIG. 6), HIV-1 infected iDCs were incubated alone or with aNK cells for 3 days, in the presence of rh-HMGB1 (1 μg/ml) (R&DSystems), and in some cultures in the presence of rabbit antiHMGB1 Abs (10 μg/ml) (Abcam, Cambridge, UK) or Glycyrrhizin (10 μg/ml).
# The concentration of HIV-1 in the supernatant of infected cell cultures was determined by measuring the amount of p24 protein by ELISA (Ingen, Belgium). DNA from cells was extracted using the GIAamp DNA Blood Mini Kit (Qiagen, Basel, Switzerland) and quantified HIV-1 proviral load by RT-PCR as described previously54. The frequency of HIV-1-infected cells was determined by flow cytometry to detect intracellular p24 molecule. Cells were surface stained with antibodies specific for CD40 (BD Biosciences, San Jose, Calif.) to target DC and intracellular stained with p24-specific antibodies (Coulter). Stained cells were fixed in 1% PFA, immediately acquired on a FACScalibur (Becton Dickinson) and analyzed with FlowJo software. In some experiments infected DCs were imaged, after immunofluorescence, by laser scanning confocal microscopy.
# [4] = system: HIV-infected DCs; assay: TRAIL-induced apoptosis of iDCs and HIV-infected DCs (7-AAD assay); assay type: cell-based, human; conditions: 24 h with 1-1000 ng/ml rhs-TRAIL
# Protocol: FIGS. 10(a)-(d). R5-HIV-infected DCs are resistant to killing by aNK cells, although TRAIL secretion persists in the presence of HIV-1 (a) iDCs were either infected with R5-HIV-1BaL (1 ng/ml of p24) for 24 h or uninfected, and after several washes, they were incubated with aNK cells at the ratios of 1:5 and 5:1. iDCs viability was assayed with the 7-AAD test by flow cytometry. Living cells are 7-AAA^−, apoptotic cells 7-AAD^+, and apoptotic debris are 7-AAD^−FSC^low. Dot plots represent one of at least three independent experiments. […] DCs were uninfected (iDCs), infected with R5-HIV-1 at 1 ng/ml of p24 (HIV-DCs) or stimulated with LPS for 48 h. Cells were then stained with CD86 and HLA-DR. Data represent one of at least three independent experiments. (c) TRAIL secretion is not affected by HIV infection of iDCs. 24 h cell-free culture supernatants of iDCs, HIV-infected DCs (10^6/ml), aNK cells-iDCs cocultures (ratio 5:1) and aNK cells-HIV-infected DCs cocultures (ratio 5:1) were tested for soluble TRAIL (sTRAIL) content by ELISA. Data represent the mean±sd of three independent experiments. […] Cell death was then quantified with the 7-AAD assay. The mean±sd of three independent experiments was presented.
molecule,measurement,setting,value
C/C=C/[C@H]1O[C@@](O)([C@@H](C)[C@H](O)[C@H](C)[C@H]2OC(=O)/C(OC)=C/C(C)=C/[C@@H](C)[C@@H](O)[C@@H](CC)[C@@H](O)[C@H](C)C/C(C)=C/C=C/[C@@H]2OC)C[C@@H](O[C@H]2C[C@@H](O)[C@H](OC(N)=O)[C@@H](C)O2)[C@@H]1C [Concanamycin A],NK-dependent iDCs apoptosis,"[1]; uninfected iDCs, aNK cells, NK:DC ratio 5:1, 24 h",no effect
"CC1(C)[C@@H](O[C@H]2O[C@H](C(=O)O)[C@@H](O)[C@H](O)[C@H]2O[C@@H]2O[C@H](C(=O)O)[C@@H](O)[C@H](O)[C@H]2O)CC[C@]2(C)[C@H]3C(=O)C=C4[C@@H]5C[C@@](C)(C(=O)O)CC[C@]5(C)CC[C@@]4(C)[C@]3(C)CC[C@@H]12 [glycyrrhizin, reference compound]",proportions of mature DCs (CD86bright HLA-DRbright),[2],reduced the proportions of mature DCs (identified as CD86brightHLA-DRbright) to the baseline level observed without aNK cells
same,resistance of HIV-1-infected iDCs to aNK-induced apoptosis (inhibition assays),"[1]; HIV-1-infected iDCs, NK:DC ratio 5:1, AZT added at infection, inhibitors at coculture initiation",found dependent on HMGB1
same,HIV-1 production (p24 in supernatant),[3]; infected DC cocultured with aNK cells,abrogated HIV-1 production
same,HIV-1 production (p24 in supernatant),[3]; infected DC cultured alone,abrogated HIV-1 production
B1,cell death of HIV-1-infected DCs,[4],still susceptible to TRAIL-induced apoptosis
